Reference: patent US20150064754A1, “BIOPRODUCTION OF CHEMICALS” (OPX Biotechnologies, Inc., priority 2013, published 2015)

Assays:
[1] = molecular target: E. coli ACCase (Escherichia coli, UniProt P0A9Q5+P0ABD5+P0ABD8+P24182); details: FIG. 4; for decrease of the activity of the ACCase enzyme: salt levels near 0.44M; for decrease of the activity of the ACCase enzyme relative to control: salts of 3-HP levels near 0.66M
Protocol: Levels of greater than 0.66M (60 g/L) are expected to be present for commercially viable commercial production of 3-HP.
Each gene was amplified by PCRs with Pfu Ultra II HS using the manufacturer's instructions, and the PCR products were purified using the Zymo PCR Cleanup kit. Concentrations of products were measured using the Nanodrop spectophotometer. The Gibson Assembly kit (NEB) was used to construct plasmids expressing the ACCase subunit genes as directed by the manufacturer. The effect of NH4-3-HP and NH4Cl on H. elongata ACCase was tested and compared to the E. coli ACCase.

[2] = system: H. elongata ACCase; experiment: Salt inhibition of ACCase enzyme activity (H. elongata ACCase); format: biochemical, Halomonas elongata; details: FIG. 4
Protocol: Concentrations of products were measured using the Nanodrop spectophotometer.

[3] = system: E. coli strains; experiment: Growth inhibition of E. coli strains grown in the presence of 3-HP; format: cell-based; details: levels as low as
[4] = system: 3-HP production; experiment: 1 L fermentation, 3HP titer with overexpression of rhtA exporter; format: cell-based, E. coli; details: control plasmid without rhtA, FIG. 7
Protocol: A known chemical exporter from E. coli that has been previously characterized for homoserine transport, rhtA, was evaluated for increased production of 3-HP. A mutant version of the exporter, rhtA(P2S) (SEQ ID NO. 30 nucleic acid, SEQ ID NO. 31 protein) was synthesized behind the PtpiA promoter and inserted into the pTRC-PyibD-MCR plasmid behind a terminator using the Gibson Assembly kit (NEB) according to manufacturer's instructions. The effects of overexpression of rhtA were evaluated in 1 L fermentation compared to the control plasmid without rhtA. […] Construction of plasmids expressing another putative transporter, ydcO (SEQ ID NO. 32 nucleic acid, SEQ ID NO. 33 protein) is carried out in the same manner.

E. coli ACCase, sequence (P0A9Q5 whole entry): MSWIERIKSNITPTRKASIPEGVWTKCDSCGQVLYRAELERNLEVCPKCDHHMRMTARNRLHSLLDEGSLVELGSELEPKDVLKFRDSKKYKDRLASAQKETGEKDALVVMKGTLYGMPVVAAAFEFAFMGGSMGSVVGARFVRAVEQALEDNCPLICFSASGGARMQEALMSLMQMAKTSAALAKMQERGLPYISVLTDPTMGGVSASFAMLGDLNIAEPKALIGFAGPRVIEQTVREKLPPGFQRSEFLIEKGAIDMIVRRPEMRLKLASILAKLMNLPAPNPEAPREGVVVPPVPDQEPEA
E. coli ACCase, sequence (P0ABD5 whole entry): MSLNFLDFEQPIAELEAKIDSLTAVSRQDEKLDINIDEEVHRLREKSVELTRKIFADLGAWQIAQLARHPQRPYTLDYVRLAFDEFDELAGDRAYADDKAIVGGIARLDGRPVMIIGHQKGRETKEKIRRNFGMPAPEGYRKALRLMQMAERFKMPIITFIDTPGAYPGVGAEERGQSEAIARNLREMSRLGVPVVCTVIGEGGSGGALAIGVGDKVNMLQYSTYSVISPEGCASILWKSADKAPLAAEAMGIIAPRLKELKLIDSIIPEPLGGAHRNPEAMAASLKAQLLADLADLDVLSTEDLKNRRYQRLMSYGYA

Cl.N [NH4Cl]
effect of salt on E. coli ACCase [1]: significantly inhibited | decrease of the activity of the ACCase enzyme [1]: approximately 80% | effect of salt on H. elongata ACCase compared to the E. coli ACCase [2]: less affected

O=C(O)CCO [3-HP, 3-hydroxypropionic acid]
3-HP level at which growth inhibition is demonstrated [3]: 20 g/L

[Cl-].[Na+] [NaCl]
decrease of the activity of the ACCase enzyme [1]: approximately 80%

O=C([O-])CCO.[Na+] [Na-3-HP]
decrease of the activity of the ACCase enzyme relative to control [1]: approximately 80%

N.O=C(O)CCO [NH4-3-HP]
effect of salt on E. coli ACCase [1]: significantly inhibited | decrease of the activity of the ACCase enzyme relative to control [1]: approximately 80% | effect of salt on H. elongata ACCase compared to the E. coli ACCase [2]: less affected

B1: rhtA: chemical exporter from E. coli characterized for homoserine transport; mutant version rhtA(P2S) overexpressed (protein)
chain: MSGSLRKMPVWLPIVILLVAMASIQGGASLAKSLFPLVGAPGVTALRLALGTLILIAFFKPWRLRFAKEQRLPLLFYGVSLGGMNYLFYLSIQTVPLGIAVALEFTGPLAVALFSSRRPVDFVWVVLAVLGLWFLLPLGQDVSHVDLTGCALALGAGACWAIYILSGQRAGAEHGPATVAIGSLIAALIFVPIGALQAGEALWHWSVIPLGLAVAILSTALPYSLEMIALTRLPTRTFGTLMSMEPALAAVSGMIFLGETLTPIQLLALGAIIAASMGSTLTVRKESKIKELDIN
3HP titer compared to the control production strain [4]: significant improvement
